The structures appear in SMILES notation.

For orientation: chromatographic logP means a lipophilicity value derived from retention on a column. A low value points to lower lipophilicity.

A short description of one data set: logP determination by HPLC on a reverse phase column (C18), EEC Directive 79/831 Annex V.A8. The class given is physicochemical. The settings on record: HPLC C18, 43° C., Table 1. As for the experimental part:
The specified logP values are determined by HPLC on a reverse phase column (C18) in accordance with EEC Directive 79/831 Annex V.A8. Temperature: 43° C. Eluents for the measurement in the acid range (pH 2.3): 0.1% aqueous phosphoric acid, acetonitrile; linearer gradient of 10% acetonitrile to 90% acetonitrile. Calibration is performed with unbranched alkyl-2-ones (with 3 to 16 carbon atoms) with known logP values (determination of the logP values based on retention times by linear interpolation between two sequential alkyl ketones).
Regarding `CCCC(C)SC(C)c1ccccc1NC(=O)c1cn(C)nc1C(F)(F)F` (mixture of isomers) [compound 42], the “logP (pH 2.3)” value turned out to be 4.02. As to `CCCC(C)SC(C)c1ccccc1NC(=O)c1c(C)nn(C)c1F` (mixture of isomers) [compound 43], the “logP (pH 2.3)” value was determined as 3.82.

As to `CCCC(C)SC(C)c1ccccc1NC(=O)c1sc(C)nc1C(F)(F)F` (mixture of isomers) [compound 44], the “logP (pH 2.3)” value is 4.52. For `CCC(C)SC(C)c1ccccc1NC(=O)c1cn(C)nc1C(F)(F)F` (mixture of isomers) [compound 45], the “logP (pH 2.3)” value amounted to 4.14. Same read-out and setting: with `CCC(C)SC(C)c1ccccc1NC(=O)c1c(C)nn(C)c1F` (mixture of isomers) [compound 46] the figure was 3.38; with `CCCC(C)SC(C)c1ccccc1NC(=O)c1ccccc1I` (mixture of isomers) [compound 47], 4.75. Consider `CCC(C)SC(C)c1ccccc1NC(=O)c1sc(C)nc1C(F)(F)F` (mixture of isomers) [compound 48], for which the “logP (pH 2.3)” value stood at 4.12. As to `CCC(C)SC(C)c1ccccc1NC(=O)c1ccccc1I` (mixture of isomers) [compound 49], the “logP (pH 2.3)” value was 4.33. Take `CC(C)SC(C)c1ccccc1NC(=O)c1ccccc1Br` (racemic) [compound 26]: the “logP (pH 2.3)” value is 3.79. `CC(C)SC(C)c1ccccc1NC(=O)c1ccccc1I` (racemic) [compound 27]: the “logP (pH 2.3)” value is 3.91. Regarding `CC(C)SC(C)c1ccccc1NC(=O)c1cn(C)nc1C(F)F` (racemic) [compound 28], the “logP (pH 2.3)” value amounted to 3.01. Regarding `Cc1nc(C(F)F)c(C(=O)Nc2ccccc2C(C)SC(C)C)s1` (racemic) [compound 29], the “logP (pH 2.3)” value is reported as 3.55. Consider `CC(C)SC(C)c1ccccc1NC(=O)C1=C(C(F)(F)F)OCCS1` (racemic) [compound 30], for which the “logP (pH 2.3)” value is reported as 3.76. In the case of `COC(C)c1ccccc1NC(=O)c1c(C)nn(C)c1F` (racemic) [compound 31], the “logP (pH 2.3)” value stood at 2.17.

As for `COC(C)c1ccccc1NC(=O)c1cn(C)nc1C(F)(F)F` (racemic) [compound 32], the “logP (pH 2.3)” value is 2.46. With `COC(C)c1cc(Cl)ccc1NC(=O)c1ccccc1C(F)(F)F` (racemic) [compound 33], the “logP (pH 2.3)” value came to 3.56. On the same count and under the same terms, with `COC(C)c1ccccc1NC(=O)c1ccccc1C(F)(F)F` (racemic) [compound 34] the figure was 2.99; with `CC(C)NC(C)c1ccccc1NC(=O)c1cn(C)nc1C(F)(F)F` (racemic) [compound 41], 1.06; with `CCCC(C)SC(C)c1ccccc1NC(=O)c1cn(C)cc1C(F)(F)F` (racemic) [compound 109], 4.29. As for `CCCC(C)SC(C)c1ccccc1NC(=O)C1=C(C(F)(F)F)OCCS1` (racemic) [compound 110], the “logP (pH 2.3)” value came out at 4.49. On the same count and under the same terms, with `CCCC(C)SC(C)c1ccccc1NC(=O)c1c(C(F)(F)F)nn(C)c1F` (racemic) [compound 111] the figure was 4.38; with `CCCC(C)SC(C)c1ccccc1NC(=O)c1ccccc1C` (racemic) [compound 112], 4.76; with `CCCC(C)SC(C)c1ccccc1NC(=O)c1c(C)nn(C)c1Cl` (racemic) [compound 113], 4.07. Same read-out and setting: with `CCC(C)SC(C)c1ccccc1NC(=O)c1c(C(F)(F)F)nn(C)c1F` (racemic) [compound 121] the figure was 3.99; with `Cc1sccc1C(=O)Nc1ccccc1C(C)S(=O)(=O)C(C)C` (stereo not shown) [Compound No. 4], 2.38. In the case of `CC(C)S(=O)(=O)C(C)c1ccccc1NC(=O)c1ccccc1C(F)(F)F` (stereo not shown) [Compound No. 6], the “logP (pH 2.3)” value is given as 2.53. With `COCc1ccccc1NC(=O)C1=C(C)OCC1` [compound 1], the “logP (pH 2.3)” value worked out at 2.18. In the case of `CC1=C(C(=O)Nc2ccccc2C(C)S(=O)(=O)C(C)C)SCCO1` (stereo not shown) [compound 2], the “logP (pH 2.3)” value turned out to be 2.07. For `CC(C)S(=O)(=O)C(C)c1ccccc1NC(=O)c1ccccc1Br` (stereo not shown) [compound 3], the “logP (pH 2.3)” value is reported as 2.30.

As to `CC(C)S(=O)(=O)C(C)c1ccccc1NC(=O)c1cccnc1Cl` (stereo not shown) [compound 5], the “logP (pH 2.3)” value is on record as 1.68.

As for `CC(C)S(=O)(=O)C(C)c1ccccc1NC(=O)c1ccccc1I` (stereo not shown) [compound 7], the “logP (pH 2.3)” value was 2.43. On to `Cc1occc1C(=O)Nc1ccccc1C(C)S(=O)(=O)C(C)C` (stereo not shown) [compound 8], for which the “logP (pH 2.3)” value stood at 2.21. `Cc1nc(C(F)(F)F)c(C(=O)Nc2ccccc2C(C)S(=O)(=O)C(C)C)s1` (stereo not shown) [compound 9]: the “logP (pH 2.3)” value is given as 2.35.

Take `CC(C)S(=O)(=O)C(C)c1ccccc1NC(=O)C1=C(C(F)(F)F)OCCS1` (stereo not shown) [compound 10]: the “logP (pH 2.3)” value is listed as 2.39. Take `Cc1nn(C)c(F)c1C(=O)Nc1ccccc1C(C)S(=O)(=O)C(C)C` (stereo not shown) [compound 11]: the “logP (pH 2.3)” value stood at 1.66. On to `CC(C)S(=O)(=O)C(C)c1ccccc1NC(=O)c1ccccc1Cl` (stereo not shown) [compound 12], for which the “logP (pH 2.3)” value worked out at 2.23.

The data set is the same for the next values; noted with them: reverse phase HPLC column (C18); pH 2.3; HPLC C18, 43° C.
As for `Cc1nn(C)c(F)c1C(=O)Nc1ccccc1C(C)NC(C)C` (stereo not shown) [Compound No. 40, 5-fluoro-N-{2-[1-(isopropylamino)ethyl]phenyl}-1,3-dimethyl-1H-pyrazole-4-carboxamide], the chromatographic logP was determined as 0.58. `CC(C)OCc1ccccc1NC(=O)c1cn(C)nc1C(F)(F)F` [Compound No. 60, N-[2-(isopropoxymethyl)phenyl]-1-methyl-3-(trifluoromethyl)-1H-pyrazol-4-carboxamide] returned a chromatographic logP of 2.85. `CC(C)SC(C)c1ccccc1N` (stereo not shown) [III-1, 2-[1-(isopropylthio)ethyl]aniline]: the chromatographic logP turned out to be 2.45.

Compound `CC(C)S(=O)(=O)C(C)c1ccccc1N` (stereo not shown) [III-2, 2-[1-(isopropylsulfonyl)ethyl]aniline] showed a chromatographic logP of 1.28. On to `CC(C)SCc1ccccc1N` [III-3, 2-[1-(isopropylthio)methyl]aniline], for which the chromatographic logP is 1.94. With `CC(C)NC(C)c1ccccc1N` (stereo not shown) [III-4, 2-[1-(isopropylamino)ethyl]aniline], the chromatographic logP is 0.05. Regarding `Cn1cc(C(=O)Nc2ccccc2CO)c(C(F)(F)F)n1` [IV-1, N-[2-(hydroxymethyl)phenyl]-1-methyl-3-(trifluoromethyl)-1H-pyrazole-4-carboxamide], the chromatographic logP was 1.55. The same measure, in the same setting: with `CC(C)S(=O)(=O)Cc1ccccc1[N+](=O)[O-]` [VI-3, 1-[(isopropylsulfonyl)methyl]-2-nitrobenzene] the figure was 1.63. As to `CC(C)SC(C)c1ccccc1[N+](=O)[O-]` (stereo not shown) [VII-1, 1-[1-(isopropylthio)ethyl]-2-nitrobenzene], the chromatographic logP amounted to 3.89.

In the case of `CC(C)SCc1ccccc1[N+](=O)[O-]` [VII-2, 1-[1-(isopropylthio)methyl]-2-nitrobenzene], the chromatographic logP was 3.28.

`CC(C)NC(C)c1ccccc1[N+](=O)[O-]` (stereo not shown) [VII-5, N-[1-(2-nitrophenyl)ethyl]propane-2-amine] yielded a chromatographic logP of 0.55.

In the case of `CC(Cl)c1ccccc1[N+](=O)[O-]` (stereo not shown) [VIII-1, 1-(1-chloroethyl)-2-nitrobenzene], the chromatographic logP stood at 2.87. For `CC(O)c1ccccc1[N+](=O)[O-]` (stereo not shown) [XI-1, 1-(2-nitrophenyl)ethanol], the chromatographic logP is 1.49.

The values are drawn from patent US7842710B2, “Carboxamides” (Bayer Cropscience AG, priority 2004, dated 2010).
